According to ChEMBL document CHEMBL1145584, “Cycloalkyl-substituted aryl chloroethylureas inhibiting cell cycle progression in G0/G1 phase and thioredoxin-1 nuclear translocation” (2008):
The source made the active and inactive calls. No cut-off for these calls is given here.

Legend:
MCF7 [1] = test: Antiproliferative activity against human MCF7 cells; format: functional
MCF7 [2] = test: Cell cycle arrest in human MCF7 cells assessed as increase in G2/M phase accumulation at 25 uM after 16 hrs by FACS analysis; format: functional
MCF7 [3] = test: Cell cycle arrest in human MCF7 cells assessed as increase in G2/M phase accumulation at 1 time GI50 after 25 hrs by flow cytometry; format: functional, cell-based
MCF7 [4] = test: Cell cycle arrest in human MCF7 cells assessed as increase in G2/M phase accumulation at 2 times GI50 after 25 hrs by flow cytometry; format: functional, cell-based
MCF7 [5] = test: Cell cycle arrest in human MCF7 cells assessed as increase in G2/M phase accumulation at 4 times GI50 after 25 hrs by flow cytometry; format: functional, cell-based
MCF7 [6] = test: Cell cycle arrest in human MCF7 cells assessed as increase in G0/G1 phase accumulation at 25 uM after 16 hrs by FACS analysis; format: functional
HT-29 [7] = test: Antiproliferative activity against human HT29 cells; format: functional
M21 [8] = test: Antiproliferative activity against human M21 cells; format: functional
MCF7 [9] = test: Cell cycle arrest in human MCF7 cells assessed as increase in S phase accumulation at 25 uM after 16 hrs by FACS analysis; format: functional
M21 [10] = test: Effect on thioredoxin-1 nuclear translocation in human M21 cells at 50 uM by immunocytochemistry analysis; format: functional, cell-based
MCF7 [11] = test: Cell cycle arrest in human MCF7 cells assessed as increase in G2/M phase accumulation at 50 uM after 16 hrs by FACS analysis; format: functional
MCF7 [12] = test: Cell cycle arrest in human MCF7 cells assessed as increase in S phase accumulation at 50 uM after 16 hrs by FACS analysis; format: functional
MCF7 [13] = test: Cell cycle arrest in human MCF7 cells assessed as increase in G0/G1 phase accumulation at 50 uM after 16 hrs by FACS analysis; format: functional
M21 [14] = test: Effect on thioredoxin-1 nuclear translocation in human M21 cells at 25 uM after 24 hrs by Western blot analysis; format: functional, cell-based
M21 [15] = test: Effect on thioredoxin-1 nuclear translocation in human M21 cells at 30 uM after 24 hrs by Western blot analysis; format: functional, cell-based
M21 [16] = test: Effect on thioredoxin-1 nuclear translocation in human M21 cells at 25 uM by immunocytochemistry analysis; format: functional, cell-based
MCF7 [17] = test: Cell cycle arrest in human MCF7 cells assessed as increase in G0/G1 phase accumulation at 4 times GI50 after 25 hrs by flow cytometry; format: functional, cell-based
MCF7 [18] = test: Cell cycle arrest in human MCF7 cells assessed as increase in G0/G1 phase accumulation at 1 time GI50 after 25 hrs by flow cytometry; format: functional, cell-based
MCF7 [19] = test: Cell cycle arrest in human MCF7 cells assessed as increase in G0/G1 phase accumulation at 2 times GI50 after 25 hrs by flow cytometry; format: functional, cell-based
M21 [20] = test: Effect on thioredoxin-1 nuclear translocation in human M21 cells at 50 uM after 24 hrs by Western blot analysis; format: functional, cell-based
MCF7 [21] = test: Cell cycle arrest in human MCF7 cells assessed as increase in G2/M phase accumulation at 0.1 uM after 16 hrs by FACS analysis; format: functional
MCF7 [22] = test: Cell cycle arrest in human MCF7 cells assessed as increase in S phase accumulation at 0.1 uM after 16 hrs by FACS analysis; format: functional
MCF7 [23] = test: Cell cycle arrest in human MCF7 cells assessed as increase in G0/G1 phase accumulation at 0.1 uM after 16 hrs by FACS analysis; format: functional
M21 [24] = test: Antiproliferative activity against human M21 cells at 100 uM; format: functional, cell-based
HT-29 [25] = test: Antiproliferative activity against human HT29 cells at 100 uM; format: functional, cell-based
MCF7 [26] = test: Antiproliferative activity against human MCF7 cells at 100 uM; format: functional, cell-based

Row | SMILES | GI50 (MCF7 [1]) | GI50 (HT-29 [7]) | GI50 (M21 [8]) | Activity (M21 [10]) | Activity (MCF7 [11]) | Activity (MCF7 [12]) | Activity (MCF7 [13]) | further results
1 | O=C(NCCCl)Nc1ccc2c(c1)CCC2 | 14.1 µM | 3.6 µM | 8 µM | – | – | – | – | Activity (MCF7 [2]): 40%; Activity (MCF7 [3]): Active; Activity (MCF7 [4]): Active; Activity (MCF7 [5]): Active; Activity (MCF7 [6]): 31%; Activity (MCF7 [9]): 29%
2 | O=C(NCCCl)NC1c2ccccc2-c2ccccc21 | 22 µM | 19 µM | 27 µM | Active | 8% | 29% | 63% | –
3 | O=C(NCCCl)Nc1cccc(OC2CCCC2)c1 | 35 µM | 9.9 µM | 22 µM | Active | 12% | 24% | 64% | –
4 | CC(C)(C)c1ccc(NC(=O)NCCCl)cc1 | – | – | – | – | – | – | – | Activity (MCF7 [2]): 58%; Activity (MCF7 [6]): 17%; Activity (M21 [14]): inactive; Activity (M21 [15]): inactive; Activity (MCF7 [9]): 24%
5 | O=C(NCCCl)Nc1cccc(Oc2ccccc2)c1 | 24 µM | 5.6 µM | 16 µM | inactive | 30% | 26% | 44% | –
6 | O=C(NCCCl)Nc1ccc(OC2CCCC2)cc1 | 49 µM | 31 µM | 38 µM | Active | 9% | 19% | 72% | –
7 | O=C(NCCCl)Nc1ccc(OC2CCCCCC2)cc1 | 19 µM | 12.5 µM | 18 µM | Active | 6% | 19% | 75% | –
8 | CCC(C)SSc1ncc[nH]1 (stereo not drawn) [PX-12] | 8.3 µM | 25 µM | 8.3 µM | – | – | – | – | Activity (MCF7 [2]): 58%; Activity (MCF7 [6]): 29%; Activity (MCF7 [9]): 13%
9 | O=C(NCCCl)Nc1ccc(Oc2ccccc2)cc1 | 9.1 µM | 2.4 µM | 5.2 µM | – | – | – | – | Activity (MCF7 [2]): 65%; Activity (MCF7 [6]): 15%; Activity (M21 [16]): inactive; Activity (MCF7 [9]): 20%
10 | O=C(NCCCl)Nc1ccc2ccccc2c1 | 5.6 µM | 1.9 µM | 4.1 µM | Active | 45% | 38% | 17% | –
11 | O=C(NCCCl)Nc1ccc(C2CCCCC2)cc1 | 21 µM | 12.6 µM | 21 µM | Active | 13% | 16% | 71% | Activity (MCF7 [17]): Active; Activity (MCF7 [18]): Active; Activity (MCF7 [19]): Active; Activity (M21 [20]): Active; Activity (M21 [15]): Active
12 | O=C(NCCCl)Nc1cccc(OC2CCCCC2)c1 | 25 µM | 7.9 µM | 20 µM | Active | 8% | 33% | 59% | –
13 | CC(=O)O[C@H]1C(=O)[C@@]2(C)[C@H]([C@H](OC(=O)c3ccccc3)[C@]3(O)C[C@H](OC(=O)[C@H](O)[C@@H](NC(=O)c4ccccc4)c4ccccc4)C(C)=C1C3(C)C)[C@]1(OC(C)=O)CO[C@@H]1C[C@@H]2O [PACLITAXEL] | – | – | – | – | – | – | – | Activity (MCF7 [21]): 80%; Activity (MCF7 [22]): 11%; Activity (MCF7 [23]): 9%
14 | O=C(NCCCl)Nc1cccc(OC2CCCCCC2)c1 | 21 µM | 10.7 µM | 20 µM | Active | 6% | 22% | 72% | –
15 | O=C(NCCCl)Nc1ccc(I)cc1 | – | – | – | – | – | – | – | Activity (MCF7 [2]): 42%; Activity (MCF7 [6]): 25%; Activity (M21 [16]): Active; Activity (MCF7 [9]): 33%
16 | COc1cc2c(c(OC)c1OC)-c1ccc(OC)c(=O)cc1[C@@H](NC(C)=O)CC2 [COLCHICINE] | – | – | – | – | – | – | – | Activity (MCF7 [21]): 62%; Activity (MCF7 [22]): 19%; Activity (MCF7 [23]): 19%
17 | O=C(NCCCl)Nc1ccc(OC2CCCCC2)cc1 | 45 µM | 23 µM | 36 µM | Active | 14% | 29% | 57% | –
18 | CCNC(=O)Nc1ccc(C2CCCCC2)cc1 | – | – | – | – | 22% | 23% | 55% | Activity (M21 [24]): inactive; Activity (HT-29 [25]): inactive; Activity (MCF7 [26]): inactive
